Among the data in PubChem BioAssay (NCI) are TGI and GI50 values, retold here.

“And” between values parts separate entries of the source, which are not always exact repeats. Identical values can stand only once.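 Assay format: 96-well plates, 48-hour exposure. GI50: concentration for 50% inhibition of growth. At the TGI there is no net growth.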

Some test systems named below: SR leukemia; HL-60(TB) leukemia; SN12C renal; SF-295 CNS; HT29 colon; HOP-92 NSCLC; 786-0 renal; NCI-H460 lung; OVCAR-8 ovarian; OVCAR-3 ovarian.
Assay in all cases: inhibition of tumour cell growth, NCI panel, 48 h

As to `O=C(CC1(O)C(=O)Nc2ccccc21)c1ccncc1` (stereo not drawn), the TGI with SR leukemia, in the experiment with HL-60(TB) leukemia, in the experiment with SN12C renal, in the experiment on SF-295 CNS, with HT29 colon and in the experiment on HOP-92 NSCLC was > 100 µM each time. The TGI with 786-0 renal and with NCI-H460 lung was > 100 µM each time.

As to `O=C(N/C(=C\c1cccc([N+](=O)[O-])c1)c1nc2ccc([N+](=O)[O-])cc2[nH]1)c1ccccc1`, the TGI in the experiment on SR leukemia is 65.6 µM; in the experiment with SN12C renal, > 100 µM; in the experiment on SF-295 CNS, > 100 µM; in the experiment with OVCAR-8 ovarian, > 100 µM; with HT29 colon it was > 100 µM; in the experiment on OVCAR-3 ovarian, > 100 µM. Further, the TGI was 60.7 µM in the experiment with HOP-92 NSCLC and > 100 µM in the experiment with 786-0 renal.

As to `Cc1cc(-c2cnn3c(NCC4CC(C)(O)C4)cc(Oc4cccnc4)nc23)ccc1C(=O)NC1CC1` (stereo not drawn), the GI50 was 0.525 µM with SR leukemia; 1.25 µM in the experiment on HL-60(TB) leukemia; 2.96 µM with SN12C renal; 3.28 µM in the experiment on SF-295 CNS; 2.41 µM with OVCAR-8 ovarian; > 100 µM with OVCAR-3 ovarian. Also, the GI50 was 6.42 µM with HOP-92 NSCLC, 3.71 µM in the experiment with 786-0 renal and 0.585 µM with NCI-H460 lung. For the same compound, the TGI with SR leukemia, with HL-60(TB) leukemia, in the experiment with SN12C renal, in the experiment on SF-295 CNS, with OVCAR-8 ovarian and in the experiment on OVCAR-3 ovarian was > 100 µM throughout. Besides, the TGI in the experiment on HOP-92 NSCLC, in the experiment with 786-0 renal and in the experiment with NCI-H460 lung was > 100 µM throughout.

Regarding `CC(=O)O[C@H]1C(=O)[C@@]2(C)C(C(OC(=O)c3ccccc3)[C@]3(O)CC(OC(=O)[C@H](OC(=O)CCC(=O)O)C(NC(=O)c4ccccc4)c4ccccc4)C(C)=C1C3(C)C)C1(OC(C)=O)COC1C[C@@H]2O` (stereo partly drawn), the TGI with SR leukemia was < 0.01 µM and 0.0173 µM; in the experiment with HL-60(TB) leukemia, < 0.0136 µM; in the experiment with SN12C renal it was > 100 µM; in the experiment on SF-295 CNS it was 2.27 µM; in the experiment on OVCAR-8 ovarian, > 100 µM; in the experiment with OVCAR-3 ovarian it was 1.76 µM and 0.459 µM. The TGI in the experiment with HOP-92 NSCLC is > 78.8 µM and 91.8 µM; with 786-0 renal, > 100 µM; in the experiment with NCI-H460 lung, > 100 µM. Further, the GI50 is < 0.01 µM and 0.0287 µM with SN12C renal; 0.0471 µM and 0.18 µM with SF-295 CNS; 0.0159 µM and 0.038 µM in the experiment with OVCAR-8 ovarian; 0.0303 µM and 0.108 µM in the experiment on 786-0 renal.

As to `O=C(O)CCSC(=O)Nc1ccc([N+](=O)[O-])cc1`, the TGI in the experiment with SR leukemia, in the experiment on HL-60(TB) leukemia, with SN12C renal, in the experiment with SF-295 CNS, with OVCAR-8 ovarian and with HT29 colon was > 100 µM in each case. Besides, the TGI in the experiment with OVCAR-3 ovarian, with 786-0 renal and with NCI-H460 lung was > 100 µM each time.

`COCCCNC(=O)C1C(=O)C(=O)N(CCCOC)C1=O` (stereo not drawn): the TGI with SR leukemia, with HL-60(TB) leukemia, in the experiment on SN12C renal, in the experiment on SF-295 CNS, in the experiment with OVCAR-8 ovarian and in the experiment on HT29 colon was > 100 µM in each case. In addition, the TGI in the experiment on OVCAR-3 ovarian, in the experiment with HOP-92 NSCLC and in the experiment with 786-0 renal was > 100 µM throughout.

With `Cn1c2ccccc2c2ccc3c(c21)C(=O)c1ccccc1C3=O`, the TGI amounted to 13.9 µM in the experiment with SR leukemia; 10.8 µM with HL-60(TB) leukemia; 73.1 µM with SN12C renal; 42 µM in the experiment with SF-295 CNS; 61.6 µM in the experiment with OVCAR-8 ovarian; 39.5 µM in the experiment with HT29 colon. In addition, the TGI in the experiment with OVCAR-3 ovarian stood at 26.8 µM; in the experiment with HOP-92 NSCLC, 54.2 µM; with 786-0 renal it was 47.3 µM.

Regarding `N#C/C(=C\c1ccc2ccccc2c1)c1ccccc1`, the TGI in the experiment with SR leukemia was > 100 µM; in the experiment with SN12C renal it was > 100 µM; in the experiment with SF-295 CNS it was 50.4 µM; with OVCAR-8 ovarian, 96.7 µM; in the experiment on HT29 colon, 74.6 µM; with OVCAR-3 ovarian it was 28.3 µM. Also, the TGI with HOP-92 NSCLC was > 100 µM; in the experiment on 786-0 renal it was 41.3 µM; in the experiment with NCI-H460 lung, 34 µM.

As to `COc1ccc2c(c1)[n+](=O)c(C(=O)C/C(=N/OCCCc1ccccc1)C(=O)NC13CC4CC(CC(C4)C1)C3)c(C)n2[O-]`, the TGI in the experiment on SR leukemia, in the experiment on HL-60(TB) leukemia, in the experiment with SN12C renal, in the experiment on SF-295 CNS, with OVCAR-8 ovarian and in the experiment on HT29 colon was > 100 µM in each case. In addition, the TGI in the experiment on OVCAR-3 ovarian, with 786-0 renal and in the experiment with NCI-H460 lung was > 100 µM in each case.

For `CC[C@@]1(c2ccccc2)C2=C(CC(C)(C)CC2=O)Nc2[nH]ncc21`, the GI50 with SR leukemia, in the experiment on SN12C renal, in the experiment on SF-295 CNS, in the experiment on OVCAR-8 ovarian, in the experiment with HT29 colon and in the experiment on OVCAR-3 ovarian was > 100 µM throughout. Also, the GI50 with HOP-92 NSCLC, with 786-0 renal and with NCI-H460 lung was > 100 µM throughout. In addition, the TGI with SR leukemia, with SN12C renal, with SF-295 CNS, with OVCAR-8 ovarian, with HT29 colon and with OVCAR-3 ovarian was > 100 µM each time. Also, the TGI in the experiment on HOP-92 NSCLC, in the experiment on 786-0 renal and in the experiment on NCI-H460 lung was > 100 µM each time.

For `NC(=O)NS(=O)(=O)c1ccc(N2N=C(C(F)(F)F)CC2c2cc(C(F)(F)F)cc(C(F)(F)F)c2)cc1` (stereo not drawn), the GI50 in the experiment on SR leukemia is 3.08 µM; in the experiment on HL-60(TB) leukemia, 3.89 µM; in the experiment with SN12C renal it was 2.1 µM; in the experiment on OVCAR-8 ovarian, 4.78 µM; with HT29 colon, 3.1 µM; with OVCAR-3 ovarian it was 1.83 µM. Also, the figures for the GI50 in the experiment on HOP-92 NSCLC, with 786-0 renal and in the experiment with NCI-H460 lung were 12.9 µM, 7.14 µM and 3.47 µM, respectively. Also, the TGI with SR leukemia was > 100 µM; with HL-60(TB) leukemia, > 100 µM; in the experiment with SN12C renal it was 4.51 µM; with OVCAR-8 ovarian, 20 µM; in the experiment with HT29 colon, 13 µM; in the experiment on OVCAR-3 ovarian, 4.12 µM. In addition, the results for the TGI in the experiment on HOP-92 NSCLC, in the experiment with 786-0 renal and in the experiment with NCI-H460 lung were 29.3 µM, 22.7 µM and 11.7 µM, respectively.
